What was measured:
[1] = target: Tyrosine-protein kinase Lck (Homo sapiens) (UniProt P06239); assay: Binding affinity to wild-type human partial length LCK (R207 to P509 residues) expressed in bacterial expression system assessed as residual binding level at 1 uM by Kinomescan method relative to control
[2] = target: Leucine-rich repeat serine/threonine-protein kinase 2 (Homo sapiens) (UniProt Q5S007); assay: Binding affinity to wild-type human partial length LRRK2 (H970 to E2527 residues) expressed in mammalian expression system assessed as residual binding level at 1 uM by Kinomescan method relative to control
[3] = target: Mitogen-activated protein kinase kinase kinase kinase 3 (Homo sapiens) (UniProt Q8IVH8); assay: Binding affinity to wild-type human partial length MAP4K3 (M1 to D301 residues) expressed in bacterial expression system assessed as residual binding level at 1 uM by Kinomescan method relative to control
[4] = target: Non-receptor tyrosine-protein kinase TNK1 (Homo sapiens) (UniProt Q13470); assay: Binding affinity to wild-type human full length TNK1 (M1 to P661 residues) expressed in bacterial expression system assessed as residual binding level at 1 uM by Kinomescan method relative to control
[5] = target: Fibroblast growth factor receptor 1 (Homo sapiens) (UniProt P11362); assay: Binding affinity to wild-type human partial length FGFR1 (P357 to V669 residues) expressed in bacterial expression system assessed as residual binding level at 1 uM by Kinomescan method relative to control
[6] = target: Cyclin-dependent kinase 13 (Homo sapiens) (UniProt Q14004); assay: Binding affinity to wild-type human partial length CDC2L5 (H675 to S1054 residues) expressed in mammalian expression system assessed as residual binding level at 1 uM by Kinomescan method relative to control
[7] = target: RAF proto-oncogene serine/threonine-protein kinase (Homo sapiens) (UniProt P04049); assay: Binding affinity to wild-type human partial length RAF1 (I330 to T640 residues) expressed in bacterial expression system assessed as residual binding level at 1 uM by Kinomescan method relative to control
[8] = target: Activin receptor type-1-like (Homo sapiens) (UniProt P37023); assay: Binding affinity to wild-type human ACVRL1 (L164 to Q503 residues) expressed in bacterial expression system assessed as residual binding level at 1 uM by Kinomescan method relative to control
[9] = target: Serine/threonine-protein kinase tousled-like 1 (Homo sapiens) (UniProt Q9UKI8); assay: Binding affinity to wild-type human partial length TLK1 (K447 to A754 residues) expressed in bacterial expression system assessed as residual binding level at 1 uM by Kinomescan method relative to control
[10] = target: Cyclin-dependent kinase 16 (Homo sapiens) (UniProt Q00536); assay: Binding affinity to wild-type human partial length PCTK1 (G160 to A474 residues) expressed in mammalian expression system assessed as residual binding level at 1 uM by Kinomescan method relative to control
[11] = test system: Phosphatidylinositol 4,5-bisphosphate 3-kinase catalytic subunit alpha isoform (Homo sapiens), P42336 [I800L]; assay: Binding affinity to human partial length PIK3CA I800L mutant (R108 to N1068 residues) expressed in mammalian expression system assessed as residual binding level at 1 uM by Kinomescan method relative to control
[12] = target: NT-3 growth factor receptor (Homo sapiens) (UniProt Q16288); assay: Binding affinity to wild-type human partial length TRKC (Q531 to G825 residues) expressed in mammalian expression system assessed as residual binding level at 1 uM by Kinomescan method relative to control
[13] = target: Homeodomain-interacting protein kinase 3 (Homo sapiens) (UniProt Q9H422); assay: Binding affinity to wild-type human partial length HIPK3 (M153 to N562 residues) expressed in mammalian expression system assessed as residual binding level at 1 uM by Kinomescan method relative to control
[14] = target: Myosin light chain kinase (Homo sapiens) (UniProt Q32MK0); assay: Binding affinity to wild-type human partial length MLCK (D488 to K800 residues) expressed in bacterial expression system assessed as residual binding level at 1 uM by Kinomescan method relative to control
[15] = target: Serine/threonine-protein kinase Nek5 (Homo sapiens) (UniProt Q6P3R8); assay: Binding affinity to wild-type human partial length NEK5 (M1 to M279 residues) expressed in bacterial expression system assessed as residual binding level at 1 uM by Kinomescan method relative to control
[16] = test system: Mast/stem cell growth factor receptor Kit (Homo sapiens), P10721 [UNDEFINED MUTATION]; assay: Binding affinity to human partial length KIT V559D/[…] double mutant (Y545 to D952 residues) expressed in bacterial expression system assessed as residual binding level at 1 uM by Kinomescan method relative to control
[17] = target: Serine/threonine-protein kinase D3 (Homo sapiens) (UniProt O94806); assay: Binding affinity to wild-type human partial length PRKD3 (S543 to E863 residues) expressed in bacterial expression system assessed as residual binding level at 1 uM by Kinomescan method relative to control
[18] = target: Tyrosine-protein kinase ZAP-70 (Homo sapiens) (UniProt P43403); assay: Binding affinity to wild-type human partial length ZAP70 (D20 to G299 residues) expressed in mammalian expression system assessed as residual binding level at 1 uM by Kinomescan method relative to control
[19] = test system: Epidermal growth factor receptor (Homo sapiens), P00533 [UNDEFINED MUTATION]; assay: Binding affinity to human partial length EGFR L747-T751del/Sins mutant expressed in bacterial expression system assessed as residual binding level at 1 uM by Kinomescan method relative to control
[20] = test system: Receptor-type tyrosine-protein kinase FLT3 (Homo sapiens), P36888 [N841I]; assay: Binding affinity to human partial length FLT3 N841I mutant (V592 to Y969 residues) expressed in bacterial expression system assessed as residual binding level at 1 uM by Kinomescan method relative to control
[21] = target: Serine/threonine-protein kinase Sgk3 (Homo sapiens) (UniProt Q96BR1); assay: Binding affinity to wild-type human partial length SGK3 (M119 to L496 residues) expressed in mammalian expression system assessed as residual binding level at 1 uM by Kinomescan method relative to control
[22] = target: Ribosomal protein S6 kinase alpha-4 (Homo sapiens) (UniProt O75676); assay: Binding affinity to wild-type human partial length C-terminal RPS6KA4 kinase domain 2 (M375 to T705 residues) expressed in mammalian expression system assessed as residual binding level at 1 uM by Kinomescan method relative to control
[23] = target: cGMP-dependent protein kinase 1 (Homo sapiens) (UniProt Q13976); assay: Binding affinity to wild-type human partial length PRKG1 (L339 to F686 residues) expressed in bacterial expression system assessed as residual binding level at 1 uM by Kinomescan method relative to control
[24] = target: Tyrosine-protein kinase Fyn (Homo sapiens) (UniProt P06241); assay: Binding affinity to wild-type human partial length FYN (T243 to L534 residues) expressed in bacterial expression system assessed as residual binding level at 1 uM by Kinomescan method relative to control
Sequence of Tyrosine-protein kinase Fyn (Homo sapiens) (P06241 2-537 limits assumed): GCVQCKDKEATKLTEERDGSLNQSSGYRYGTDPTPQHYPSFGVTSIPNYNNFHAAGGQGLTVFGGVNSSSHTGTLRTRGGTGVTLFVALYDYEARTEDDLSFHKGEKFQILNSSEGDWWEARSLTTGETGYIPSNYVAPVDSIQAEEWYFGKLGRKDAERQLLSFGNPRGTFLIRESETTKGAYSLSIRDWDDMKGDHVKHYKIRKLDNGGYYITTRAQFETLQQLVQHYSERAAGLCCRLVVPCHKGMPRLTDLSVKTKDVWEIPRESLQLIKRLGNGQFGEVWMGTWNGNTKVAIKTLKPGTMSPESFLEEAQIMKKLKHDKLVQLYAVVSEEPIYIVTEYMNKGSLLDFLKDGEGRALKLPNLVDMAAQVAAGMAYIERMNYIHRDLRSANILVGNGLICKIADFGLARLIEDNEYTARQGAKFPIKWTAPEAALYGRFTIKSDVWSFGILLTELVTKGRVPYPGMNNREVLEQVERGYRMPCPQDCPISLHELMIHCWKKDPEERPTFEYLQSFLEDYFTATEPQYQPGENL

Sequence of NT-3 growth factor receptor (Homo sapiens) (Q16288 32-839 limits assumed): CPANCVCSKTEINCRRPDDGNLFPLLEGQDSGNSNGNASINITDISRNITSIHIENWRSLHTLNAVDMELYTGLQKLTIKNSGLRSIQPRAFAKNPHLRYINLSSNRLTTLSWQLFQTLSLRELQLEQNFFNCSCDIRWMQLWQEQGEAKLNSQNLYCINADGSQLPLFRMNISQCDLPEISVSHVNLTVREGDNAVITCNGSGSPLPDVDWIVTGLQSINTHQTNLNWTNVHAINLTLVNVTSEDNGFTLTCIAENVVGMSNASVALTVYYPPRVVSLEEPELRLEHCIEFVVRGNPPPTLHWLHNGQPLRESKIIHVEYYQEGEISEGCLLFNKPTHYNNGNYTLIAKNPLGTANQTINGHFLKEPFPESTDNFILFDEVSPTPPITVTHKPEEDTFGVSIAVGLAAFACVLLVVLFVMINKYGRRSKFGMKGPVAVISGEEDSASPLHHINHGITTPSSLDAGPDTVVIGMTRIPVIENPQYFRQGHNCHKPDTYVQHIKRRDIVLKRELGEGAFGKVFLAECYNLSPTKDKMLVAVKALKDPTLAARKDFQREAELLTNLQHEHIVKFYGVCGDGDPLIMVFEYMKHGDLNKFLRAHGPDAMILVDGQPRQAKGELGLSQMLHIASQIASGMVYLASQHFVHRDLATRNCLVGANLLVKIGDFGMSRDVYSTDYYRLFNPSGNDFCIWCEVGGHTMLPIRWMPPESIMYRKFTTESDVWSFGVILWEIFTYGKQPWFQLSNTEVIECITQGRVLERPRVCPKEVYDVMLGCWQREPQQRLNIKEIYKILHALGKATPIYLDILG
Sequence of Serine/threonine-protein kinase tousled-like 1 (Homo sapiens) (Q9UKI8 whole entry, the tested form may be a part): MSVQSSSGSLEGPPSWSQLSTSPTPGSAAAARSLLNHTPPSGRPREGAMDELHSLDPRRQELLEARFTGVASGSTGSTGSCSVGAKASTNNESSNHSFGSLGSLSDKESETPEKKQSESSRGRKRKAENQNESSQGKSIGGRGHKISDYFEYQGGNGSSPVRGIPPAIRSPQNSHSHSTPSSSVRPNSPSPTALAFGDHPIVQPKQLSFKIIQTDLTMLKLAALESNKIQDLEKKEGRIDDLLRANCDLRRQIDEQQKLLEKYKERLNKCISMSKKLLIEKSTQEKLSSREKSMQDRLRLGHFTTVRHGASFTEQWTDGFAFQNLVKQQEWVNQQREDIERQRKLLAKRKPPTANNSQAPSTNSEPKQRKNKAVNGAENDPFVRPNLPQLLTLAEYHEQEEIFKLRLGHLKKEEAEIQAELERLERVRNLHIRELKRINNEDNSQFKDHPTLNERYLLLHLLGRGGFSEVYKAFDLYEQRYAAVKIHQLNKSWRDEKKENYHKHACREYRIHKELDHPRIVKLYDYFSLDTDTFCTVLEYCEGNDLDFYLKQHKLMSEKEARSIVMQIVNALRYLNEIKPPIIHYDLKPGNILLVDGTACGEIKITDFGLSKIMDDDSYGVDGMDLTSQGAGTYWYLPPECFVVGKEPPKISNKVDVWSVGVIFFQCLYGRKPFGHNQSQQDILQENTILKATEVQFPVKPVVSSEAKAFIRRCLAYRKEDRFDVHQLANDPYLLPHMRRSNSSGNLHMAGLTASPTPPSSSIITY
Sequence of Ribosomal protein S6 kinase alpha-4 (Homo sapiens) (O75676 whole entry, looked up, the tested form may be a part): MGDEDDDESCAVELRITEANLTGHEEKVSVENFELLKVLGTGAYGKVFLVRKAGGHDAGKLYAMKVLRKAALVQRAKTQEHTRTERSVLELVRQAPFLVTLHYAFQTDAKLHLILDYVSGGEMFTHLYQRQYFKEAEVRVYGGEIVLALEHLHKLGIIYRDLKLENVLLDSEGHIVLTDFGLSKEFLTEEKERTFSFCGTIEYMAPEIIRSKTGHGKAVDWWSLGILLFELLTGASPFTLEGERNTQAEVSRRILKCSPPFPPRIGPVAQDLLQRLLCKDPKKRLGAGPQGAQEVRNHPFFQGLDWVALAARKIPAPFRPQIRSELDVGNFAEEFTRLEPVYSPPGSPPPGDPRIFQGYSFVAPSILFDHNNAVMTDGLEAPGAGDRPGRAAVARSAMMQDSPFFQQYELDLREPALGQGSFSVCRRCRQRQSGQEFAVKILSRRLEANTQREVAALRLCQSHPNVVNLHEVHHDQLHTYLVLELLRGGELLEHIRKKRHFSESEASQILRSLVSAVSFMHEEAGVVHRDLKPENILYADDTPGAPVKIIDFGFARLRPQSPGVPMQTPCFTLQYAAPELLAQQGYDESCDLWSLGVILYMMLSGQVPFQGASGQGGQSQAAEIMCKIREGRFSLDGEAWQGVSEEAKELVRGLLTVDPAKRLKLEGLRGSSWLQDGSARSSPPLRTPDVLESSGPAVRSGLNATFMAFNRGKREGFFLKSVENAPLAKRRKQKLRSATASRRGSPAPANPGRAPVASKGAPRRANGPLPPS
Sequence of Homeodomain-interacting protein kinase 3 (Homo sapiens) (Q9H422 whole entry, looked up, the tested form may be a part): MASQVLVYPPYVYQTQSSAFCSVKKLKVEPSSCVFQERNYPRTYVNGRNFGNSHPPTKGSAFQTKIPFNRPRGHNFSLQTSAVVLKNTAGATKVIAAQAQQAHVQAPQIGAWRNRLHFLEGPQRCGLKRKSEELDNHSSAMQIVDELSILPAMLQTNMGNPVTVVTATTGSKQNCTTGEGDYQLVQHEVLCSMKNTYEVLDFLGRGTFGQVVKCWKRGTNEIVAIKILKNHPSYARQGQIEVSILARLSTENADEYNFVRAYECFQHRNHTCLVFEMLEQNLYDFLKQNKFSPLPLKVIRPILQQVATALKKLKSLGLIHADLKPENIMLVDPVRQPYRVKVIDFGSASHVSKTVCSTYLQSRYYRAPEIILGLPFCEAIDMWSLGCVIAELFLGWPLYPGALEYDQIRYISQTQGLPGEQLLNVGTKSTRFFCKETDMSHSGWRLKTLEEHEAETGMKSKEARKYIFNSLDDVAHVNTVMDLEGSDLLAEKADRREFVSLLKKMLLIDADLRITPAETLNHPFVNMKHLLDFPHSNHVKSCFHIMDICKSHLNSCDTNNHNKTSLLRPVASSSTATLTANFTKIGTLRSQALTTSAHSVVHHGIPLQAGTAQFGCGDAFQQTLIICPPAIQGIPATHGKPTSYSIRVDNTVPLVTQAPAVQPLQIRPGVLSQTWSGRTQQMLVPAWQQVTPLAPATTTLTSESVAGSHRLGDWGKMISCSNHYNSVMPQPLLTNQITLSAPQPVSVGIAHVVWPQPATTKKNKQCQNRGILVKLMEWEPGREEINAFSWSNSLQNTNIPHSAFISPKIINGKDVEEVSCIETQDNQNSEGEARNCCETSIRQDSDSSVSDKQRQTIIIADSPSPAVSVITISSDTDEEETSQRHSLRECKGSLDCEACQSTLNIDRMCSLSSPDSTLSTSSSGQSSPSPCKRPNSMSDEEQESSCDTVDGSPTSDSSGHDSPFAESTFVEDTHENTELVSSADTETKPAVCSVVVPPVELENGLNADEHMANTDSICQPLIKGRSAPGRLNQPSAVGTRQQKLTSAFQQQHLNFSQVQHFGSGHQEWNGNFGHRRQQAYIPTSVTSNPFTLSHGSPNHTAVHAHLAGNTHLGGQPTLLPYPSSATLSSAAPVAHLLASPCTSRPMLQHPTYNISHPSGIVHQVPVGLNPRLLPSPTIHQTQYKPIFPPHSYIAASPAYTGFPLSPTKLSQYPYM
Sequence of Mast/stem cell growth factor receptor Kit (Homo sapiens), P10721 [UNDEFINED MUTATION] (P10721 whole entry, looked up, stated change not applied, the tested form may be a part): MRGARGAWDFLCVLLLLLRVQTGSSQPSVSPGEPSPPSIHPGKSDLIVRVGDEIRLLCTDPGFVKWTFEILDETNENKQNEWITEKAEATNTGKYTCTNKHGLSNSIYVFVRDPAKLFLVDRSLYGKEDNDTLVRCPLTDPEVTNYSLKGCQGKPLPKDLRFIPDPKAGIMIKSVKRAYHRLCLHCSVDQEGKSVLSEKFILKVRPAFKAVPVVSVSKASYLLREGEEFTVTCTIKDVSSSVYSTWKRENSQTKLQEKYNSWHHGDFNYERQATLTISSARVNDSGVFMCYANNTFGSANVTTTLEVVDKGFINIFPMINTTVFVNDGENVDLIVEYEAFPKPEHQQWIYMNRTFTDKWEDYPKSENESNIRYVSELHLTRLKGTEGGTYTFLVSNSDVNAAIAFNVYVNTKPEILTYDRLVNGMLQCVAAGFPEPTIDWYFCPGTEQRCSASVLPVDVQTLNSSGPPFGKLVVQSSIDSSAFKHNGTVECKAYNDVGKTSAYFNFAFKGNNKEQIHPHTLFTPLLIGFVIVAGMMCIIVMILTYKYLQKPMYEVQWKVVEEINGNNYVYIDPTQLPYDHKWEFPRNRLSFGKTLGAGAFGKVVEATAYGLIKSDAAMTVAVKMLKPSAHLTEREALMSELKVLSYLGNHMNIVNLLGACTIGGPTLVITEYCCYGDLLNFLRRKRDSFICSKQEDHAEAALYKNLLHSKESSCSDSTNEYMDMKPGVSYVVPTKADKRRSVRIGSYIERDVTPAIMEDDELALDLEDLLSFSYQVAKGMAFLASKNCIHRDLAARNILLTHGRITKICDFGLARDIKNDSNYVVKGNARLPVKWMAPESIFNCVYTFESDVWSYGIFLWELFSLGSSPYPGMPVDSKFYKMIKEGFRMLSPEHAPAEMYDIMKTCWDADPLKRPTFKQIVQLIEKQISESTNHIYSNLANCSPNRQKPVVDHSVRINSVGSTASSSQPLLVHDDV

Q: Which results are given for `CC(C)Nc1sc(C(=O)c2ccc(Cl)s2)c(N)c1C#N`?
A: Activity [1]: 93%; Activity [2]: 81%; Activity [3]: 59%; Activity [4]: 70%; Activity [5]: 70%; Activity [6]: 84%; Activity [7]: 71%; Activity [8]: 100%; Activity [9]: 100%; Activity [10]: 100%; Activity [11]: 73%; Activity [12]: 87%; Activity [13]: 89%; Activity [14]: 71%; Activity [15]: 91%; Activity [16]: 57%; Activity [17]: 62%; Activity [18]: 100%; Activity [19]: 100%; Activity [20]: 95%; Activity [21]: 100%; Activity [22]: 79%; Activity [23]: 100%; Activity [24]: 91%
